One molecule from patent US20250213563A1, “SUBSTITUTED PYRIMIDIN-4(3H)-ONES FOR USE IN TREATING CANCER” (NAVIRE PHARMA, INC., priority 2021, published 2025) can be followed below.

Data set [1] has as its system panel of 14 full-length human phosphatases. Put plainly: Eurofins Panlabs spectrofluorimetric phosphatase panel. Conditions: 10 μM. In kind it is biochemical. On the procedure:
(§1) The activity of Compound (10b) was also assessed against a panel of 14 full-length human phosphatases using spectrofluorimetric biochemical assays. These assays were conducted using the Eurofins Panlabs platform.

The target in another data set is T1, human SHP-1 (Homo sapiens, UniProt P29350).
T1 construct: a panel of 14 full-length human phosphatases; purchased Eurofins Panlabs
Put plainly: Eurofins Panlabs spectrofluorimetric phosphatase assay. In kind it is biochemical. Conditions: 10 μM. How it is done: as §1

Data set [2] concerns HCC827 cell line-derived xenograft (CDX) model. Put plainly: Monotherapy anti-tumor activity, HCC827 CDX model. In kind it is in vivo. Conditions: for tumor growth inhibition (TGI): day 1 to day 28. How it is done:
An in vivo efficacy study was conducted to evaluate the monotherapy anti-tumor activity of Compound (10b) in female BALB/c nude mice bearing the non-small cell lung cancer (NSCLC) HCC827 cell line-derived xenograft (CDX) model, which harbors an EGFR exon 19 deletion (EGFR^ex19del) and EGFR amplification (EGFRamp). Mice (n=10 per group) were dosed daily orally with the indicated levels of Compound (10b) from day 1 to day 28, and a dose dependent reduction in tumor volume was observed. […] All groups dosed QD, PO Two-way mixed-effects ANOVA: *p<0.0001 vs vehicle.
In vivo efficacy studies were conducted to evaluate the monotherapy anti-tumor activity of Compound (10b) across a panel of cell line-derived xenograft (CDX) models. […] Significant anti-tumor efficacy was also observed in two CDX models with acquired resistance to EGFR inhibitors.

Another data set relates to HCC827. Put plainly: pERK protein levels (HTRF). Conditions: Homo sapiens; HCC827, EGFR^Ex19del. In kind it is cell-based. On the procedure:
(§2) The potency of Compound (10b) in a panel of human tumor cell lines with active MAPK signaling was assessed. Cell viability in a 3D culture system was assessed by measuring CellTiter-Glo (CTG) luminescence following 8 days of treatment with nine concentrations of Compound (10b). MAPK pathway signaling was assessed by measuring pERK protein levels and DUSP6 mRNA levels by homogeneous time resolved fluorescence (HTRF) and quantitative polymerase chain reaction (qPCR), respectively. […] These viability effects correlated with pERK inhibition (Table 2, FIG. 6B) and DUSP6 inhibition (FIG. 6C).

The next data set has as its system KYSE-520. Put plainly: pERK protein levels (HTRF). In kind it is cell-based. Conditions: Homo sapiens; KYSE-520, EGFR^amp. How it is done: as §2
The test system of the next data set is NCI-H1299. Put plainly: pERK protein levels (HTRF). In kind it is cell-based. Particulars: Homo sapiens; NCI-H1299, NRAS^Q61K. On the procedure:
as §2

In the next data set the test system is NCI-H1975. Put plainly: pERK protein levels (HTRF). In kind it is cell-based. Conditions: Homo sapiens; NCI-H1975, EGFR^L858R/T790M. How it is done: as §2
The next data set relates to NCI-H358. Put plainly: pERK protein levels (HTRF). In kind it is cell-based. Conditions: Homo sapiens; NCI-H358, KRAS^G12C. On the procedure: as §2
For the next data set, the system named is pERK in PBMC. Put plainly: Phase 1/1B first-in-human study, PBMC pERK inhibition. In kind it is in vivo.

T1 sequence (P29350 whole entry): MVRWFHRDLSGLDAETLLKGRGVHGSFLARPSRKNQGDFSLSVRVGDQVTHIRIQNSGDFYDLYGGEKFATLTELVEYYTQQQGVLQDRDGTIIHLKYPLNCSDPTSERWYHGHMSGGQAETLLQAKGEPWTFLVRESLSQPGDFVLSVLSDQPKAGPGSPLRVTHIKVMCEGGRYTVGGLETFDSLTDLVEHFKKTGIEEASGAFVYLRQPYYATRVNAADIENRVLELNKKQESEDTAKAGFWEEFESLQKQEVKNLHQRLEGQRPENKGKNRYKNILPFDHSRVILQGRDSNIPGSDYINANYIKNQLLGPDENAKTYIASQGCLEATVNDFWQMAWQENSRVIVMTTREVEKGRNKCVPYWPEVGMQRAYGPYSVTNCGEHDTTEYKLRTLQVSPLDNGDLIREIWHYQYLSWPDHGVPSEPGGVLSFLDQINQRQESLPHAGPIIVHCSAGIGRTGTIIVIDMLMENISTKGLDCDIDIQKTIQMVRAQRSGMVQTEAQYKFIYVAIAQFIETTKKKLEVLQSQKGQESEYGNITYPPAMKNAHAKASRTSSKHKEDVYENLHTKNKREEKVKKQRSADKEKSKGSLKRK

As to `Cc1c(N2CCC3(CC2)CO[C@@H](C)[C@H]3N)nc(C)n(-c2cccc(Cl)c2Cl)c1=O` (atropisomer, axis not shown; (Ra)) [Compound (10b), 6-((3S,4S)-4-amino-3-methyl-2-oxa-8-azaspiro[4.5]decan-8-yl)-3-(Ra)-(2,3-dichlorophenyl)-2,5-dimethylpyrimidin-4(3H)-one], the inhibition of phosphatases result in [1] is reported as “No significant inhibition”. Moreover, on human SHP-1, the “inhibition of human SHP-1” value is listed as “did not demonstrate any inhibition”. Moreover, the “tumor growth inhibition (TGI)” value is listed as 41% in [2] (3 mg/kg QD PO), 84% in data set [2] (10 mg/kg QD PO) and 98% in data set [2] (30 mg/kg QD PO). Also, in data set [2] (100 mg/kg QD PO), the mean tumor regression worked out at 60%. In data set [2] (3-100 mg/kg QD PO), the “impact of treatment on body weight” value is on record as “no impact”. For the same molecule, in [2] (3-100 mg/kg QD PO), the tolerability result is “well tolerated”. The molecule also registered an ED90 in data set [2] (QD PO) of 10 mg/kg. The IC50 is 460 nM in the data set on HCC827; 73 nM with KYSE-520; greater than 25000 nM in the data set on NCI-H1299; 400 nM in the data set with NCI-H1975; 480 nM with NCI-H358. This molecule registered an inhibition at 550 mg with pERK in PBMC (Homo sapiens, PBMC, 550 mg dose level, 24 h post dose) of 90%. For the same molecule, the “PBMC pERK inhibition” value with pERK in PBMC (cohort 5 (550 mg), 4 hours post dose) was roughly 95%.
